# Laboratory results reported in BindingDB's records for patent US10709709 (Pfizer Inc., 2020).
# Molecular target: Protein arginine N-methyltransferase 5 (Homo sapiens, UniProt O14744)
# Experiment: Biochemical Assay
# Procedure: Compounds were solubilized in DMSO and serially diluted, using 3-fold dilutions, into 100% DMSO at a concentration 50-fold greater than the desired assay concentration. Following dilution, 1 ul was added to an empty 96-well microtiter plate. PRMT5/MEP50 protein complex was combined with H4(1-21) peptide ([…]) in PRMT5 assay buffer (50 mM Tris pH 8.5, 50 mM NaCl, 5 mM MgCl2, 1 mM EDTA, 1 mM TCEP) and 44 ul was added to the microtiter plate containing compound. S-Adenosyl-L-methionine (SAM) was prepared by combining 3H labelled SAM with unlabelled SAM in PRMT5 assay buffer such that the final SAM concentration was 10 uM and the specific activity was 0.2 uCi/ul. The reaction was initiated by adding 5 ul of SAM stock to the microtiter plate. The final reaction conditions were 10 nM PRMT5/MEP50 complex, 200 nM peptide and 1 uM SAM. Following a 25 minute incubation at room temperature, the reaction was stopped with the addition of 100 uL of 20% TCA. The 3H-peptide product was captured using a 96-well filter plate (MSIPN4B, Millipore) and washed 5 times with PBS buffer. Scintillation fluid (100 ul) was added to the dried filter plate and counted in a liquid scintillation counter. IC50 values were determined by fitting the data to the standard 4-parameter dose response equation using Pfizer proprietary software.
# Chain of Protein arginine N-methyltransferase 5 (O14744 whole entry): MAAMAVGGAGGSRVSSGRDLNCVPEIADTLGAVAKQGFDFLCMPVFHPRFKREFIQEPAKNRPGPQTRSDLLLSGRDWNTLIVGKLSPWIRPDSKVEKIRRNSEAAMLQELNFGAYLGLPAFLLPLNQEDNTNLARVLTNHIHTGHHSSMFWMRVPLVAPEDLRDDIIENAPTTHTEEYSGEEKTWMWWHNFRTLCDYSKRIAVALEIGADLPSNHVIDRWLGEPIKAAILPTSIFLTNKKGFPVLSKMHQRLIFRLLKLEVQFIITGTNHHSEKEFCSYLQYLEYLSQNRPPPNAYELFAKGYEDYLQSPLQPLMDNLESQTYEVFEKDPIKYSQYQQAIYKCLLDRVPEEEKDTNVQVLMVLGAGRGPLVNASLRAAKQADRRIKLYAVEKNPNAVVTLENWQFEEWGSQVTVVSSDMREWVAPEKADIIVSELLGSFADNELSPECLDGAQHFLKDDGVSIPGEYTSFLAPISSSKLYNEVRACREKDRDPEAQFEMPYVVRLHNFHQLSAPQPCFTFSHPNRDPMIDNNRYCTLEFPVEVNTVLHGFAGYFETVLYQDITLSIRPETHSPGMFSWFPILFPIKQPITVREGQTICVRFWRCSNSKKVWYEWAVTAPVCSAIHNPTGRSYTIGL
row,Compound,IC50
1,"Nc1ncnc2c1c(Br)cn2[C@@H]1C[C@H](Oc2cc(Cl)cc3c2CNCC3)[C@@H](O)[C@H]1O [US10709709, Example 131]",1 nM
2,"Cc1cc2c(c(O[C@H]3C[C@@H](n4ccc5c(C)ncnc54)[C@H](O)[C@@H]3O)c1)CNCCO2 [US10709709, Example 206]",2 nM
3,"Cc1ncnc2c1ccn2[C@@H]1C[C@H](Oc2cc(C(F)F)cc3c2CNCCO3)[C@@H](O)[C@H]1O [US10709709, Example 205]",1 nM
